The text below walks through data of patent US9926281B2 (priority 2014, dated 2018).

One assay addresses human ADAMTS-5 (Homo sapiens (Human), UniProt Q9UNA0). Particulars: read-out: hADAMTS-5 potency IC50.
Another assay deals with human TACE (Homo sapiens (Human), UniProt P78536). Particulars: read-out: TACE potency IC50.
Another assay addresses rnADAMTS-5 (1-564-6H) (Rattus norvegicus, UniProt Q6TY19). As to conditions: read-out: Rat ADAMTS-5 potency IC50.
In a further assay the target is human MMP13 (Homo sapiens (Human), UniProt P45452). As to conditions: read-out: hMMP-13 potency IC50.

The structures appear in SMILES notation. Some results are limits rather than exact numbers.

Chain of human TACE (P78536 whole entry, looked up, change not shown): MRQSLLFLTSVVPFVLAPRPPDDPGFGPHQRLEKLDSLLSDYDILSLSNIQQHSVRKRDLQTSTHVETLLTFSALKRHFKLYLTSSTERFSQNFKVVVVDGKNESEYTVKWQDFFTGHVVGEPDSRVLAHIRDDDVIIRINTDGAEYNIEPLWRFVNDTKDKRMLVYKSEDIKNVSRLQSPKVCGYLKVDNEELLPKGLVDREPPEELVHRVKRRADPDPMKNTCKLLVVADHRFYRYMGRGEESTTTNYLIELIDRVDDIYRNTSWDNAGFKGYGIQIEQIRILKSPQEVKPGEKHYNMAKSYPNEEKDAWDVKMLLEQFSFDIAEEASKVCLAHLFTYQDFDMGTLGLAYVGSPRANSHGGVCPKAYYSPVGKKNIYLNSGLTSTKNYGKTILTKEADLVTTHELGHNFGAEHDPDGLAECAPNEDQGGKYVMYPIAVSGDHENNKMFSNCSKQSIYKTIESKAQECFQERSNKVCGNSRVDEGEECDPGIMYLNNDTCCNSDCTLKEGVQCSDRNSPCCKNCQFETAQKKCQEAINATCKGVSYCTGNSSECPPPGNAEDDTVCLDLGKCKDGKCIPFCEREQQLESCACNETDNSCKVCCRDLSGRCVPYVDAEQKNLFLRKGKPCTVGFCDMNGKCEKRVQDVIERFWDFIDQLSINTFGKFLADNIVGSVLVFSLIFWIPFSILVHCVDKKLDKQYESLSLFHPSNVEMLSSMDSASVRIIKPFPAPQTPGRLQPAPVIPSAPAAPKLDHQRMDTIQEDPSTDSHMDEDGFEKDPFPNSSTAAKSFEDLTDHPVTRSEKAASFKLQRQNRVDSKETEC
Chain of human ADAMTS-5 (Q9UNA0 262-930): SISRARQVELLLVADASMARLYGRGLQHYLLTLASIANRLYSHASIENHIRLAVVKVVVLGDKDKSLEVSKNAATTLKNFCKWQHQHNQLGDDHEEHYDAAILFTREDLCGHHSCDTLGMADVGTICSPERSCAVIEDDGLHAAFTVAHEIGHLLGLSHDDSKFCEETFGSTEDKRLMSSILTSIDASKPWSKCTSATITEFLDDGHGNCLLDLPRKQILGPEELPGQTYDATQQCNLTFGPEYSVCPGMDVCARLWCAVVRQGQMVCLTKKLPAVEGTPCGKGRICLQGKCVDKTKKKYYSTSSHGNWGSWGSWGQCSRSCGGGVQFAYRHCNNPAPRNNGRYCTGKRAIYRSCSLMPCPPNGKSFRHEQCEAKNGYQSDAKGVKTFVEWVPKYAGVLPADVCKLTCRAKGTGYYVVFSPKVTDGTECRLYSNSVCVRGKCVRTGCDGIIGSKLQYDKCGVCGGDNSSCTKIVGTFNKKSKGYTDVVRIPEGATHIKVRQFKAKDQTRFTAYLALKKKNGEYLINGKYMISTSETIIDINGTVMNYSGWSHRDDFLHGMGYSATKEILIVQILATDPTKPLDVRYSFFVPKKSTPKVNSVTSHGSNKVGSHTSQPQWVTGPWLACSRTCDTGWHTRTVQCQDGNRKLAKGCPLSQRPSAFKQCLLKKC
Method for human ADAMTS-5: Finally, the fluorescence is read on the Envision (Perkin Elmer) after an incubation of 90 min at 37° C.
Method for human MMP13: Human MMP13 is preactivated by incubated the enzyme in the same buffer complemented with 1 mM freshly prepared p-Aminophenylmercuric acetate (AMPA) for 1 hour at 37° C.

Consider `O=C1NC(=O)C(CCC(=O)N2CCN(c3cc(Cl)cc(Cl)c3)CC2)(CNCc2ccccc2)N1` (stereo not shown) [Cpd 181, 5-[(benzylamino)methyl]-5-[3-[4-(3,5-dichlorophenyl)piperazin-1-yl]-3-oxo-propyl]imidazolidine-2,4-dione], for which the IC50 on human ADAMTS-5 was 97 nM; at human TACE, 2860 nM; at rnADAMTS-5 (1-564-6H), 127 nM; on human MMP13, greater than 20000 nM.
With `COC(=O)CC1(CCC(=O)N2CCN(c3cc(Cl)cc(Cl)c3)CC2)NC(=O)NC1=O` (stereo not shown) [Cpd 182, Methyl 2-[4-[3-[4-(3,5-dichlorophenyl)piperazin-1-yl]-3-oxo-propyl]-2,5-dioxo-imidazolidin-4-yl]acetate], the IC50 at human ADAMTS-5 is 104 nM; on human TACE, greater than 4000 nM; on rnADAMTS-5 (1-564-6H) it was 87 nM; at human MMP13 it was greater than 20000 nM.
With `CC(C)(C)OC(=O)CC1(CCC(=O)N2CCN(c3cc(Cl)cc(Cl)c3)CC2)NC(=O)NC1=O` (stereo not shown) [Cpd 188, tert-butyl 2-[4-[3-[4-(3,5-dichlorophenyl)piperazin-1-yl]-3-oxo-propyl]-2,5-dioxo-imidazolidin-4-yl]acetate], the IC50 at human ADAMTS-5 was 53 nM; at human TACE, greater than 4000 nM; at rnADAMTS-5 (1-564-6H), 54 nM; at human MMP13, 2670 nM.
On the same counts, the results for `O=C(CC1(CCC(=O)N2CCN(c3cc(Cl)cc(Cl)c3)CC2)NC(=O)NC1=O)NCCO` (stereo not shown) [Cpd 189, 2-[4-[3-[4-(3,5-dichlorophenyl)piperazin-1-yl]-3-oxo-propyl]-2,5-dioxo-imidazolidin-4-yl]-N-(2-hydroxyethyl)acetamide] are 256 nM, greater than 4000 nM, 254 nM and greater than 20000 nM.
For the compound `O=C1NC(=O)C(CCC(=O)N2CCN(c3cccc(F)c3)CC2)(c2cccnc2)N1` (stereo not shown) [compound 112, 5-[3-[4-(3-fluorophenyl)piperazin-1-yl]-3-oxo-propyl]-5-(3-pyridyl)imidazolidine-2,4-dione], the IC50 on human TACE was greater than 4000 nM; at rnADAMTS-5 (1-564-6H) it was 39 nM; at human MMP13, 1880 nM.
On the same counts, the results for `O=C1NC(=O)C(CCC(=O)N2CCN(c3cccc(F)c3)CC2)(C2CC2)N1` (stereo not shown) [compound 115, 5-cyclopropyl-5-[3-[4-(3-fluorophenyl)piperazin-1-yl]-3-oxo-propyl]imidazolidine-2,4-dione] are greater than 20000 nM, 38 nM and greater than 4000 nM.
On the same counts, the results for `Cc1ccc(F)cc1N1CCN(C(=O)CCC2(C3CC3)NC(=O)NC2=O)CC1` (stereo not shown) [compound 116, 5-cyclopropyl-5-[3-[4-(5-fluoro-2-methyl-phenyl)piperazin-1-yl]-3-oxo-propyl]imidazolidine-2,4-dione] are greater than 4640 nM, 29 nM and greater than 20000 nM.
The matching figures for `CS(=O)(=O)c1ccc(C2(CCC(=O)N3CCN(c4cccc(Cl)c4)CC3)NC(=O)NC2=O)cc1` (stereo not shown) [compound 124, 5-[3-[4-(3-chlorophenyl)piperazin-1-yl]-3-oxo-propyl]-5-(4-methylsulfonylphenyl)imidazolidine-2,4-dione]: 880 nM, 37 nM and 1280 nM.
For the compound `C[C@H]1CN(C(=O)CCC2(C3CC3)NC(=O)NC2=O)CCN1c1ccccc1` (stereo partly drawn) [compound 135, 5-cyclopropyl-5-[3-[(3S)-3-methyl-4-phenyl-piperazin-1-yl]-3-oxo-propyl]imidazolidine-2,4-dione], the results for the concentration for half-maximal inhibition (IC50) on human TACE, at rnADAMTS-5 (1-564-6H) and on human MMP13 were greater than 20000 nM, 125 nM and greater than 20000 nM, respectively.
As for `C[C@H]1CN(C(=O)CCC2(c3cccnc3)NC(=O)NC2=O)CCN1c1ccccc1` (stereo partly drawn) [compound 136, 5-[3-[(3S)-3-methyl-4-phenyl-piperazin-1-yl]-3-oxo-propyl]-5-(3-pyridyl)imidazolidine-2,4-dione], the IC50 on human TACE is greater than 20000 nM; on rnADAMTS-5 (1-564-6H), 242 nM; at human MMP13, greater than 20000 nM.
With `C[C@H]1CN(C(=O)CCC2(C3CC3)NC(=O)NC2=O)CCN1c1cc(Cl)cc(Cl)c1` (stereo partly drawn) [compound 142, 5-cyclopropyl-5-[3-[(3S)-4-(3,5-dichlorophenyl)-3-methyl-piperazin-1-yl]-3-oxo-propyl]imidazolidine-2,4-dione], the IC50 on human TACE is greater than 4000 nM; at rnADAMTS-5 (1-564-6H), 54 nM; at human MMP13 it was greater than 20000 nM.
On the same counts, the results for `Cc1ccc(F)cc1N1CCN(C(=O)CCC2(C)NC(=O)NC2=O)C[C@@H]1C` (stereo partly drawn) [compound 145, 5-[3-[(3S)-4-(5-fluoro-2-methyl-phenyl)-3-methyl-piperazin-1-yl]-3-oxo-propyl]-5-methyl-imidazolidine-2,4-dione] are greater than 4000 nM, 563 nM and greater than 20000 nM.
On the same counts, the results for `COc1ccccc1C1(CCC(=O)N2CCN(c3cccc(Cl)c3)CC2)NC(=O)NC1=O` (stereo not shown) [compound 146, 5-[3-[4-(3-chlorophenyl)piperazin-1-yl]-3-oxo-propyl]-5-(2-methoxyphenyl)imidazolidine-2,4-dione] are 1580 nM, 133 nM and 3880 nM.
The matching figures for `C[C@H]1CN(C(=O)CCC2(C3CC3)NC(=O)NC2=O)CCN1c1ccc(Cl)cc1` (stereo partly drawn) [compound 147, 5-[3-[(3S)-4-(4-chlorophenyl)-3-methyl-piperazin-1-yl]-3-oxo-propyl]-5-cyclopropyl-imidazolidine-2,4-dione]: greater than 4000 nM, 99 nM and greater than 4000 nM.
With `Cc1ccc(F)cc1N1CCN(C(=O)CCC2(C3CC3)NC(=O)NC2=O)C[C@@H]1C` (stereo partly drawn) [compound 148, 5-cyclopropyl-5-[3-[(3S)-4-(5-fluoro-2-methyl-phenyl)-3-methyl-piperazin-1-yl]-3-oxo-propyl]imidazolidine-2,4-dione], the IC50 was greater than 4000 nM on human TACE, 97 nM at rnADAMTS-5 (1-564-6H) and greater than 20000 nM at human MMP13.
On the same counts, the results for `C[C@H]1CN(C(=O)CCC2(C3CC3)NC(=O)NC2=O)CCN1c1cccc(F)c1` (stereo partly drawn) [compound 151, 5-cyclopropyl-5-[3-[(3S)-4-(3-fluorophenyl)-3-methyl-piperazin-1-yl]-3-oxo-propyl]imidazolidine-2,4-dione] are greater than 20000 nM, 83 nM and greater than 20000 nM.
On the same counts, the results for `C[C@H]1CN(C(=O)CCC2(C3CC3)NC(=O)NC2=O)CCN1c1cccc(Cl)c1` (stereo partly drawn) [compound 152, 5-[3-[(3S)-4-(3-chlorophenyl)-3-methyl-piperazin-1-yl]-3-oxo-propyl]-5-cyclopropyl-imidazolidine-2,4-dione] are greater than 20000 nM, 62 nM and greater than 20000 nM.
With `O=C1Cc2cc(C3(CCC(=O)N4CCN(c5cccc(Cl)c5)CC4)NC(=O)NC3=O)ccc2N1` (stereo not shown) [compound 153, 5-[3-[4-(3-chlorophenyl)piperazin-1-yl]-3-oxo-propyl]-5-(2-oxoindolin-5-yl)imidazolidine-2,4-dione], the IC50 is 2270 nM on human TACE, 114 nM on rnADAMTS-5 (1-564-6H) and greater than 4000 nM on human MMP13.
On the same counts, the results for `COCCN(C)CC1(CCC(=O)N2CCN(c3cccc(Cl)c3)CC2)NC(=O)NC1=O` (stereo not shown) [compound 154, 5-[3-[4-(3-chlorophenyl)piperazin-1-yl]-3-oxo-propyl]-5-[[2-methoxyethyl(methyl)amino]methyl]imidazolidine-2,4-dione] are greater than 20000 nM, 507 nM and greater than 4000 nM.
On to `C[C@H]1CN(C(=O)CCC2(C)NC(=O)NC2=O)CCN1c1cc(F)cc(F)c1` (stereo partly drawn) [compound 156, 5-[3-[(3S)-4-(3,5-difluorophenyl)-3-methyl-piperazin-1-yl]-3-oxo-propyl]-5-methyl-imidazolidine-2,4-dione], for which the IC50 on human TACE is greater than 20000 nM; at rnADAMTS-5 (1-564-6H), 128 nM; at human MMP13, greater than 20000 nM.
On to `C[C@H]1CN(C(=O)CCC2(C)NC(=O)NC2=O)CCN1c1cccc(F)c1` (stereo partly drawn) [compound 157, 5-[3-[(3S)-4-(3-fluorophenyl)-3-methyl-piperazin-1-yl]-3-oxo-propyl]-5-methyl-imidazolidine-2,4-dione], for which the values for the IC50 on human TACE, at rnADAMTS-5 (1-564-6H) and on human MMP13 were greater than 20000 nM, 284 nM and greater than 20000 nM, respectively.
Turning to `C[C@]1(CCC(=O)N2CCN(c3cc(Cl)cc(Cl)c3)CC2)NC(=O)NC1=O` [compound 159, (5R)-5-[3-[4-(3,5-dichlorophenyl)piperazin-1-yl]-3-oxo-propyl]-5-methyl-imidazolidine-2,4-dione], the half-maximal inhibitory concentration (IC50) on human TACE is 1870 nM; at rnADAMTS-5 (1-564-6H), 127 nM; at human MMP13, greater than 20000 nM.
On the same counts, the results for `C[C@H]1CN(C(=O)CCC2(C3CC3)NC(=O)NC2=O)CCN1c1cc(F)cc(F)c1` (stereo partly drawn) [compound 160, 5-cyclopropyl-5-[3-[(3S)-4-(3,5-difluorophenyl)-3-methyl-piperazin-1-yl]-3-oxo-propyl]imidazolidine-2,4-dione] are greater than 20000 nM, 36 nM and greater than 20000 nM.
As for `C[C@H]1CN(C(=O)CCC2(C)NC(=O)NC2=O)CCN1c1cc(F)cc(Cl)c1` (stereo partly drawn) [compound 170, 5-[3-[(3S)-4-(3-chloro-5-fluoro-phenyl)-3-methyl-piperazin-1-yl]-3-oxo-propyl]-5-methyl-imidazolidine-2,4-dione], the results for the IC50 at human ADAMTS-5, at rnADAMTS-5 (1-564-6H) and at human MMP13 were 170 nM, 244 nM and greater than 20000 nM, respectively.
The matching figures for `CC(CC1NC(=O)NC1=O)C(=O)N1CCN(c2cc(Cl)cc(Cl)c2)CC1` (stereo not shown) [compound 200, 5-[3-[4-(3,5-dichlorophenyl)piperazin-1-yl]-2-methyl-3-oxo-propyl]imidazolidine-2,4-dione]: 109 nM, 135 nM and greater than 20000 nM.
`CC(CC1NC(=O)NC1=O)C(=O)N1CCN(c2cc(Cl)cc(Cl)c2)CC1` (stereo not shown) [compound 219, 5-[3-[4-(3,5-dichlorophenyl)piperazin-1-yl]-2-methyl-3-oxo-propyl]imidazolidine-2,4-dione]: the IC50 was 41 nM on human ADAMTS-5, 29 nM at rnADAMTS-5 (1-564-6H) and greater than 4000 nM at human MMP13.
